Source: PMC4245237, “Searching the Cytochrome P450 Enzymes for the Metabolism of Meranzin Hydrate: A Prospective Antidepressant Originating from Chaihu-Shugan-San” (PLoS ONE, 2014)
“And” between values parts separate entries of the source, which are not always exact repeats. Identical values can stand only once. “Also recorded” adds a separate entry of the source. Counter-ions that a name gives are not always drawn. Like-named read-outs stand apart in the source and are kept apart here.

What was measured:
[1] = target: CYP2E1 (Homo sapiens, UniProt P05181); details: cited from earlier work
[2] = target: T1, CYP1A2 (Homo sapiens, UniProt P05177); assay: Kinetic analysis of MH metabolism by recombinant CYP1A2; format: in vitro ADME; parameters: purchased Cypex Ltd. (U.K.); details: recombinant CYP1A2 10 pmol
T1 sequence (P05177 1-516): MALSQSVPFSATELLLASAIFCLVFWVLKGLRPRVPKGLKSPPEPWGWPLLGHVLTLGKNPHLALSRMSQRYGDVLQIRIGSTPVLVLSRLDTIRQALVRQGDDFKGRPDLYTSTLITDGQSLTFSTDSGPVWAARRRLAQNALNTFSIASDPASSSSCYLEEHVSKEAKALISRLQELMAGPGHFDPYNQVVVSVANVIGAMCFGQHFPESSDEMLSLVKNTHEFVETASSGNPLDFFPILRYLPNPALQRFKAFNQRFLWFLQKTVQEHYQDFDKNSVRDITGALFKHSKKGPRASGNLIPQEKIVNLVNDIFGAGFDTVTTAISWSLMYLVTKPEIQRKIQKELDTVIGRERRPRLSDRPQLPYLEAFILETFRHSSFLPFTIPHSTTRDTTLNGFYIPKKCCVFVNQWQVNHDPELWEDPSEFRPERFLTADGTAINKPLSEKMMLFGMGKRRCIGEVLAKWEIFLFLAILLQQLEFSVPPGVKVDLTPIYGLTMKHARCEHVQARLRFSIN
Method: (§1) The samples were vortexed for 5 min.
(§2) Kinetic analysis was performed for MH, and the data generated were used as a guide for selecting the appropriate concentrations of MH in the subsequent inhibition experiments. Thus, the kinetic parameters for the metabolism of MH was determined by incubating increasing concentrations of MH (0.5–100 µM) (without the inhibitor) at 37°C with the HLMs and NADPH under the incubation conditions. The equation of MH reaction velocity (V) in the HLMs or CYP isoforms was expressed as V = (C0–Ct)/T/Cp, where C0 and Ct represented the initial and final concentrations of MH in the incubation solution, respectively. T was the incubation time (min) and Cp was the protein concentration (mg/mL or nmol). All values were expressed as the mean±standard deviation (SD). The mean intrinsic clearance rate (CLint) for the in vitro incubation was estimated using Vmax/Km.
(§3) P<0.05 denoted significance in all cases.

[3] = target: T2, CYP2C19 (Homo sapiens, UniProt P33261); assay: Inhibition of CYP2C19 (S-Mephenytoin 4-hydroxylation) in HLMs; format: in vitro ADME; parameters: tissue Cypex Ltd. (U.K.); host or cells: pooled human liver microsomes, ten donors
Method: as §1
(§4) All incubation conditions were the same as mentioned above.
(§5) Therefore, Dixon plots for the inhibition of CYP1A2 and CYP2C19 were determined by incubating the substrate probe at multiple concentrations with or without the test inhibitor at multiple concentrations with the HLMs and cofactors. The inhibition data obtained from the pilot experiments were used as a guide to generate appropriate probe substrate and test inhibitor concentrations for the determination of the Ki values for each CYP isoform. The isoform-specific probe substrate concentrations used were 3 to 100 µM phenacetin for CYP1A2 and 15 to 120 µM S-mephenytoin for CYP2C19. The MH concentrations used were 0 to 100 µM.
as §3

[4] = target: T3, CYP2D6 (Homo sapiens, UniProt P10635); assay: Effect of specific inhibitor quinidine on MH metabolism in HLMs; format: in vitro ADME; details: MH 10 µM, in the presence of QUI 1 µM
T3 construct: tissue Cypex Ltd. (U.K.); host or cells: pooled human liver microsomes, ten donors
Method: as §1, §3

[5] = target: T4, CYP2C9 (Homo sapiens, UniProt P11712); assay: Inhibition of CYP2C9 (tolbutamide 4-hydroxylation) in HLMs; format: in vitro ADME
T4 construct: tissue Cypex Ltd. (U.K.); host or cells: pooled human liver microsomes, ten donors
Method: as §1, §4, §3

[6] = target: T2, CYP2C19; assay: MCR of MH with recombinant CYP2C19 inhibited by ticlopidine; format: in vitro ADME; parameters: purchased Cypex Ltd. (U.K.); details: ticlopidine 1 µM
Method: as §1
(§6) Figure 3 Effect on the metabolic clearance rate (MCR) of meranzin hydrate (MH) under the inhibition of recombinant CYP1A2 and CYP2C19. […] Each point represents the average of triplicate incubations.

[7] = target: T5, CYP3A4 (Homo sapiens, UniProt P08684); assay: Effect of specific inhibitor ketoconazole on MH metabolism in HLMs; format: in vitro ADME; details: MH 10 µM, in the presence of KET 1 µM
T5 construct: tissue Cypex Ltd. (U.K.); host or cells: pooled human liver microsomes, ten donors
Method: as §1, §3

[8] = target: T1, CYP1A2; assay: Inhibition of CYP1A2 (phenacetin O-deethylation) in HLMs; format: in vitro ADME; parameters: tissue Cypex Ltd. (U.K.); host or cells: pooled human liver microsomes, ten donors
Method: as §1, §4, §5, §3

[9] = target: T4, CYP2C9; assay: Effect of specific inhibitor sulfaphenazole on MH metabolism in HLMs; format: in vitro ADME; details: MH 10 µM, in the presence of SUL 1 µM
Method: as §1, §3

[10] = target: T5, CYP3A4; assay: Inhibition of CYP3A4 (midazolam 1-hydroxylation) in HLMs; format: in vitro ADME
Method: as §1, §4, §3

[11] = test system: longitudinal and circular jejunum muscles; details: dose-dependent manner; cited from earlier work
[12] = parameters: method as in PMID 21061180; details: rats; cited from earlier work
[13] = test system: human liver microsomes (HLMs); assay: Kinetic analysis of MH metabolism in HLMs; format: in vitro ADME; details: HLMs 0.5 mg/mL, MH 0.5–100 µM, 30 min, 37°C
[14] = target: T3, CYP2D6; assay: Inhibition of CYP2D6 (metoprolol α-hydroxylation) in HLMs; format: in vitro ADME
Method: as §1, §4, §3

[15] = target: T1, CYP1A2; assay: MCR of MH with recombinant CYP1A2 inhibited by furafylline; format: in vitro ADME; parameters: purchased Cypex Ltd. (U.K.); details: furafylline 1 µM
Method: as §1, §6

[16] = target: T2, CYP2C19; assay: Kinetic analysis of MH metabolism by recombinant CYP2C19; format: in vitro ADME; parameters: purchased Cypex Ltd. (U.K.); details: recombinant CYP2C19 10 pmol
Method: as §1, §2, §3

[17] = target: T2, CYP2C19; assay: Effect of specific inhibitor ticlopidine on MH metabolism in HLMs; format: in vitro ADME; parameters: tissue Cypex Ltd. (U.K.); host or cells: pooled human liver microsomes, ten donors; details: MH 10 µM, in the presence of TIC 1 µM
Method: as §1, §3

[18] = target: T1, CYP1A2; assay: Effect of specific inhibitor furafylline on MH metabolism in HLMs; format: in vitro ADME; parameters: tissue Cypex Ltd. (U.K.); host or cells: pooled human liver microsomes, ten donors; details: MH 10 µM, in the presence of FUR 1 µM
Method: as §1, §3

T2 sequence (P33261 whole entry): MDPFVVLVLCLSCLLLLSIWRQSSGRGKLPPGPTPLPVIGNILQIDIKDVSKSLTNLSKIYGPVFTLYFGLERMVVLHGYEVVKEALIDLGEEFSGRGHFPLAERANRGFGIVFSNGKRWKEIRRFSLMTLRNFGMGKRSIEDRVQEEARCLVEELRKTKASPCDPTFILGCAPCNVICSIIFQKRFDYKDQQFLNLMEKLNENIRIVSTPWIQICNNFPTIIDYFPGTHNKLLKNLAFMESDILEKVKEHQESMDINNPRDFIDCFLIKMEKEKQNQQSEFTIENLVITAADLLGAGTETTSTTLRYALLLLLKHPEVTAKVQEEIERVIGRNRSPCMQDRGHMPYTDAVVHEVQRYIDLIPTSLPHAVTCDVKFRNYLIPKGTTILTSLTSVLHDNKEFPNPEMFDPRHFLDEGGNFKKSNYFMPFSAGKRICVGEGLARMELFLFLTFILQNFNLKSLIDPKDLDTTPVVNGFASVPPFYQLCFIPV
T3 sequence (P10635 whole entry): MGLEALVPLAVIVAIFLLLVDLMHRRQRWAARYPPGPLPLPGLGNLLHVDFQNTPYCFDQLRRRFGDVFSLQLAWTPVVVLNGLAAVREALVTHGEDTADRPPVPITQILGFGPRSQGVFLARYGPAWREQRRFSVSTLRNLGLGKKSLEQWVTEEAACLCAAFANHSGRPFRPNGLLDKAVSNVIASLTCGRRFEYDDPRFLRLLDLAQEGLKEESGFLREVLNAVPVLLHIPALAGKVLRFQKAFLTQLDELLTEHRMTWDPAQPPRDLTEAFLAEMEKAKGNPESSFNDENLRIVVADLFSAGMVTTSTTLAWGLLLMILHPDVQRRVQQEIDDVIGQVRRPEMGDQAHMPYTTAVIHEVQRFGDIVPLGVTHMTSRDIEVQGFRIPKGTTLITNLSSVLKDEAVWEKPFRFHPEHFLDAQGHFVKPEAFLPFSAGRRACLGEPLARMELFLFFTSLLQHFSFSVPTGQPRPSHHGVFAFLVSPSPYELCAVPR
T5 sequence (P08684 whole entry): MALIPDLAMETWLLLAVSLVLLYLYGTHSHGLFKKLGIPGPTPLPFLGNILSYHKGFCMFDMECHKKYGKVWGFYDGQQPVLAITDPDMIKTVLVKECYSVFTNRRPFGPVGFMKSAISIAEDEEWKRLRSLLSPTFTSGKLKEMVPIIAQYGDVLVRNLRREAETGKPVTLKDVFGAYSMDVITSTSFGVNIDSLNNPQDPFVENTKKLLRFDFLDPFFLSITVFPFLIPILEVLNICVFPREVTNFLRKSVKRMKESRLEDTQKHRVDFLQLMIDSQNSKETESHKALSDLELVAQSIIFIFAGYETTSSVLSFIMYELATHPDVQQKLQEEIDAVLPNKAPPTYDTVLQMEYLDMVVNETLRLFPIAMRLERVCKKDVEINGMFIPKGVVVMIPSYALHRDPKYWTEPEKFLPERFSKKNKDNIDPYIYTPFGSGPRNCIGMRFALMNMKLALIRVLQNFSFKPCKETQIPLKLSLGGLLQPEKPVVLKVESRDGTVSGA
T4 sequence (P11712 whole entry): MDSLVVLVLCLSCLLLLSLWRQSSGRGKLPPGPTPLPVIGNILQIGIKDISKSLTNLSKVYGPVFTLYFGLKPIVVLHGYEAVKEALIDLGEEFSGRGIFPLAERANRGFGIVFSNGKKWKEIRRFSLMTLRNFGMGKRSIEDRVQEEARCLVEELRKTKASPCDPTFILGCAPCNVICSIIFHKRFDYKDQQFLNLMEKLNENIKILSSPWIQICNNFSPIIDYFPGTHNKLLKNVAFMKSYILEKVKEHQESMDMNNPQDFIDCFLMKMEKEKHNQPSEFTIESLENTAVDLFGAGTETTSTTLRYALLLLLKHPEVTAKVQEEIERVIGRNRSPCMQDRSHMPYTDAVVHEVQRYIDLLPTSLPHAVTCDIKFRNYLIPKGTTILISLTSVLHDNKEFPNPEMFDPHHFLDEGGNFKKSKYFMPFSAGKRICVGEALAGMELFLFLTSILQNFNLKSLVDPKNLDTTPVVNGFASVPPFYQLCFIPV
CYP2E1, sequence (P05181 whole entry): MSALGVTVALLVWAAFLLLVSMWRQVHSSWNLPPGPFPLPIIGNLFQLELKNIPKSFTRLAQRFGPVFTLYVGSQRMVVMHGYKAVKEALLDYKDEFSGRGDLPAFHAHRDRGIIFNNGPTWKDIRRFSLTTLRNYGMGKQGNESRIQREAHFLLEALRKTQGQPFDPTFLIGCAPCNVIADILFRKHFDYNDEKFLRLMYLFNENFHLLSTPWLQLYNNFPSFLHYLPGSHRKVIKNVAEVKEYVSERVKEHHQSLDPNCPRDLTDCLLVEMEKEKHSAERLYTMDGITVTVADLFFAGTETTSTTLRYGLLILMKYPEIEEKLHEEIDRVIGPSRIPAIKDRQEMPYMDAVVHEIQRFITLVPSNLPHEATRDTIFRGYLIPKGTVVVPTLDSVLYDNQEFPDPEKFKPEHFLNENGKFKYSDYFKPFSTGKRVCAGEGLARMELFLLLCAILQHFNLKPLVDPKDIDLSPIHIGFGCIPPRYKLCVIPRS

CCN(CC)C(=S)S [DIE, diethyldithiocarbamate]
IC50 [1]: 21.3 µM

Cc1ncsc1CCCl [CHL, chlormethiazole hydrochloride]
Ki ([1]; read-out: Ki, specific inhibitor reported value, CYP2E1): 12 µM

COc1ccc2ccc(=O)oc2c1C[C@H](O)C(C)(C)O [MH, Meranzin hydrate]
Km [2]: 8 ± 1.6 µM
Vmax of MH metabolism [2]: 112.4±5.7 nmol/nmol P450/min
Vmax of MH metabolism ([2]; listed as Meranzin hydrate): 112.4 nmol/nmol P450/min
type of inhibition ([3]; CYP2C19, HLMs, Dixon / Lineweaver-Burk plots): competitively; also recorded: full competitive inhibition
IC50 ([3]; CYP2C19, classification of Kong et al [23], read-out: inhibitor potency class by IC50): 10 to 50 µM
Ki ([3]; HLMs, S-mephenytoin 15 to 120 µM, MH 0 to 100 µM): 42.6 µM
effect on metabolism (MCR) of MH [4]: no obvious inhibitory effects
IC50 ([5]; CYP2C9, classification of Kong et al [23], read-out: inhibitor potency class by IC50): > 50 µM
IC50 ([5]; HLMs, tolbutamide 100 µM, read-out: IC50): > 100 µM
MCR of MH, % of that of the control ([6]; recombinant CYP2C19, MH 10 µM): 68.5%
MCR of MH, % of that of the control ([6]; recombinant CYP2C19, MH 50 µM): 80.5%
effect on metabolism (MCR) of MH [7]: no obvious inhibitory effects
type of inhibition ([8]; CYP1A2, HLMs, Dixon / Lineweaver-Burk plots): competitive
IC50 of MH relative to that of FUR ([8]; CYP1A2, phenacetin O-deethylation, HLMs, higher than FUR): 3.2 fold
Ki of MH relative to that of FUR ([8]; CYP1A2, phenacetin O-deethylation, higher than FUR): approximately 1.5 fold
IC50 ([8]; CYP1A2, classification of Kong et al [23], read-out: inhibitor potency class by IC50): < 10 µM
IC50 ([8]; HLMs, phenacetin 10 µM, brackets = 95% confidence interval, read-out: IC50): 4.47 µM
Ki ([8]; HLMs, phenacetin 3 to 100 µM, MH 0 to 100 µM): 4.56 µM
effect on metabolism (MCR) of MH [9]: no obvious inhibitory effects
IC50 ([10]; CYP3A4, classification of Kong et al [23], read-out: inhibitor potency class by IC50): > 50 µM
IC50 ([10]; HLMs, midazolam 5 µM, read-out: IC50): > 100 µM
amplitude of contractility in the longitudinal and circular jejunum muscles [11]: increase the amplitude of contractility
gastric emptying [12]: significantly accelerated
intestinal transit [12]: significantly accelerated
Km [13]: 10.3 ± 1.3 µM
Vmax of MH metabolism [13]: 99.1±3.3 nmol/mg protein/min
Km ([13]; listed as Meranzin hydrate): 10.3 µM
Vmax of MH metabolism ([13]; listed as Meranzin hydrate): 99.11 nmol/mg protein/min
IC50 ([14]; CYP2D6, classification of Kong et al [23], read-out: inhibitor potency class by IC50): > 50 µM
IC50 ([14]; HLMs, metoprolol 7.5 µM, read-out: IC50): > 100 µM
MCR of MH, % of that of the control ([15]; recombinant CYP1A2, MH 10 µM): 43.5%
MCR of MH, % of that of the control ([15]; recombinant CYP1A2, MH 50 µM): 60.5%
Km [16]: 25.9 ± 6.6 µM
Vmax of MH metabolism [16]: 134.3±12.4 nmol/nmol P450/min
Km ([16]; listed as Meranzin hydrate): 25.9 µM
Vmax of MH metabolism ([16]; listed as Meranzin hydrate): 134.3 nmol/nmol P450/min
metabolic clearance rate (MCR) of MH, % of that of the control [17]: 41.3±11.1% and 41.3%
metabolic clearance rate (MCR) of MH, % of that of the control [18]: 29.1±7.2% and 29.1%
